Laboratory results published in EPA's CvTdb concentration-time database.

Key:
[1] = system: Rat; experiment: concentration in plasma after dosing; conditions: dosed: 2-Hydroxy-4-methoxybenzophenone, 8 mg/kg, iv, Female, F344
[2] = system: Mouse; experiment: concentration in plasma after dosing; conditions: 2.5 min; dosed: 2-Hydroxy-4-methoxybenzophenone; 250 mg/kg; oral; Male; B6C3F1
[3] = system: Mouse; experiment: concentration in plasma after dosing; conditions: 2 h; dosed: 2-Hydroxy-4-methoxybenzophenone; 50 mg/kg; iv; Female; B6C3F1
[4] = system: Mouse; experiment: concentration in plasma after dosing; conditions: 10 min; dosed: 2-Hydroxy-4-methoxybenzophenone; 50 mg/kg; iv; Female; B6C3F1
[5] = system: Rat; experiment: concentration in plasma after dosing; conditions: 4 h; dosed: 2-Hydroxy-4-methoxybenzophenone; 500 mg/kg; oral; Male; F344
[6] = system: Mouse; experiment: concentration in plasma after dosing; conditions: dosed: 2-Hydroxy-4-methoxybenzophenone, 100 mg/kg, oral, Male, B6C3F1
[7] = system: Mouse; experiment: concentration in plasma after dosing; conditions: 0.25 h; dosed: 2-Hydroxy-4-methoxybenzophenone; 50 mg/kg; iv; Female; B6C3F1
[8] = system: Mouse; experiment: concentration in plasma after dosing; conditions: 0.25 h; dosed: 2-Hydroxy-4-methoxybenzophenone; 50 mg/kg; iv; Male; B6C3F1
[9] = system: Mouse; experiment: concentration in plasma after dosing; conditions: 10 min; dosed: 2-Hydroxy-4-methoxybenzophenone; 500 mg/kg; oral; Male; B6C3F1
[10] = system: Rat; experiment: concentration in plasma after dosing; conditions: dosed: 2-Hydroxy-4-methoxybenzophenone, 250 mg/kg, oral, Male, F344
[11] = system: Mouse; experiment: concentration in plasma after dosing; conditions: 2 h; dosed: 2-Hydroxy-4-methoxybenzophenone; 500 mg/kg; oral; Male; B6C3F1
[12] = system: Rat; experiment: concentration in plasma after dosing; conditions: 10 min; dosed: Nitrite; 40 mg/kg; oral; Female; F344
[13] = system: Rat; experiment: concentration in plasma after dosing; conditions: 20 min; dosed: Nitrite; 20 mg/kg; iv; Male; F344
[14] = system: Rat; experiment: concentration in plasma after dosing; conditions: dosed: Nitrite, 20 mg/kg, iv, Male, F344
[15] = system: Rat; experiment: concentration in plasma after dosing; conditions: dosed: Nitrite, 80 mg/kg, oral, Female, F344
[16] = system: Rat; experiment: concentration in liver after dosing; conditions: 192 h; dosed: Perfluorooctanoic acid; 12 mg/kg; oral; Male; Harlan Sprague Dawley
[17] = system: Rat; experiment: concentration in kidney after dosing; conditions: 3 h; dosed: Perfluorooctanoic acid; 12 mg/kg; oral; Male; Harlan Sprague Dawley
[18] = system: Rat; experiment: concentration in liver after dosing; conditions: 6 h; dosed: Fluorotelomer alcohol 8+2; 24 mg/kg; oral; Male; Harlan Sprague Dawley
[19] = system: Rat; experiment: concentration in liver after dosing; conditions: 3 h; dosed: Perfluorooctanoic acid; 12 mg/kg; oral; Male; Harlan Sprague Dawley
[20] = system: Rat; experiment: concentration in kidney after dosing; conditions: 192 h; dosed: Perfluorooctanoic acid; 12 mg/kg; oral; Male; Harlan Sprague Dawley
[21] = system: Rat; experiment: concentration in liver after dosing; conditions: 6 h; dosed: Fluorotelomer alcohol 8+2; 80 mg/kg; oral; Female; Harlan Sprague Dawley
[22] = system: Rat; experiment: concentration in plasma after dosing; conditions: 0.25 h; dosed: Potassium Perfluorobutane Sulfonate; 4 mg/kg; iv; Male; F344
[23] = system: Rat; experiment: concentration in plasma after dosing; conditions: 1.5 h; dosed: Potassium Perfluorobutane Sulfonate; 20 mg/kg; oral; Male; Harlan Sprague Dawley
[24] = system: Rat; experiment: concentration in plasma after dosing; conditions: 1.5 h; dosed: Potassium Perfluorobutane Sulfonate; 4 mg/kg; iv; Male; F344
[25] = system: Rat; experiment: concentration in plasma after dosing; conditions: 0.5 h; dosed: Potassium Perfluorobutane Sulfonate; 4 mg/kg; iv; Male; F344
[26] = system: Rat; experiment: concentration in plasma after dosing; conditions: dosed: Potassium Perfluorobutane Sulfonate, 4 mg/kg, iv, Male, F344
[27] = system: Rat; experiment: concentration in plasma after dosing; conditions: dosed: Potassium Perfluorobutane Sulfonate, 4 mg/kg, iv, Male, F344; remark: listed apart in the source
[28] = system: Rat; experiment: concentration in brain after dosing; conditions: 1 h; dosed: Potassium Perfluorobutane Sulfonate; 20 mg/kg; oral; Male; Harlan Sprague Dawley
[29] = system: rat; experiment: concentration in blood after dosing; conditions: dosed: methanol, male, CDF(F344)/CrlBR

COc1ccc(C(=O)c2ccccc2)c(O)c1 [2-Hydroxy-4-methoxybenzophenone]
concentration in plasma [ng/mL]
Conditions | 0.25 h | 2 h | 2.5 min | 3 h | 4 h | 10 min
[1] | 1800 | – | – | – | 38.7 | –
[6] | 113 | 24.1 | 84.8 | 18.6 | – | 27.8
[10] | 55.5 | – | – | – | 84 | –

Conditions | concentration in plasma [ng/mL]
[2] | 22
[3] | 311
[4] | 11500
[5] | 345
[7] | 5560
[8] | 7710
[9] | 102
[11] | 95.6

O=N[O-] [Nitrite]
Conditions | concentration in plasma [ng/mL]
[12] | 26600
[13] | 7600

concentration in plasma [ng/mL]
Conditions | 1 h | 1.25 h | 2 h | 10 min
[14] | – | 1700 | – | 4800
[15] | 11200 | – | 12200 | –

O=C(O)C(F)(F)C(F)(F)C(F)(F)C(F)(F)C(F)(F)C(F)(F)C(F)(F)F [Perfluorooctanoic acid]
Conditions | concentration in kidney [ng/g] | concentration in liver [ng/g]
[16] | – | 51800
[17] | 36800 | –
[18] | – | 1450
[19] | – | 41100
[20] | 14100 | –
[21] | – | 1430

O=S(=O)([O-])C(F)(F)C(F)(F)C(F)(F)C(F)(F)F.[K+] [Potassium Perfluorobutane Sulfonate]
Conditions | concentration in brain [ng/g] | concentration in plasma [ng/mL]
[22] | – | 16400
[23] | – | 70000
[24] | – | 1740
[25] | – | 12500
[28] | 1030 | –

concentration in plasma [ng/mL]
Conditions | 0.25 h | 3 h | 5 min | 6 h
[26] | – | 10200 | 29400 | –
[27] | 26000 | – | – | 7280

CO [methanol]
[29], 200 ppm, inhalation, duration: 6 hr
Conditions | concentration in blood [ng/mL]
0 h | 4780
0.5 h | 2950
1 h | 1990
1.5 h | 3160
2 h | 2100
3 h | 949
4.5 h | 1730
6 h | 396
8 h | 704
10 h | 528

[29], 100 mg/kg, iv
Conditions | concentration in blood [ng/mL]
0.3747 h | 90900
0.621 h | 80500
1.114 h | 70300
1.606 h | 61300
2.08 h | 60600
3.027 h | 39200
4.505 h | 26100
6.002 h | 12200
